How the values were obtained:
[1] = tested on: Lewis lung carcinoma and B-16 melanocarcinoma solid murine tumor models; settings: mouse, in vivo; cited from earlier work
[2] = tested on: human acute lymphoblastic leukemia line C.E.M.; settings: cited from earlier work
tubulin = experiment: HTS-Tubulin Polymerization Assay Kit, tubulin polymerization in vitro; assay type: biochemical; settings: 1 μM solution, 10 μL + 100 μL 4 mg/ml tubulin, 37° C., 405 nm; compared with the PBS buffer (FIG. 6)
Description: According to the instruction of kit, pre-warm the 96-well plate to 37° C. for 30 min prior to starting the assay. At the same time, the spectrophotometer (SpectraMax, Molecular Devices, USA) was set as follow: wavelength, 405 nm; temperature, 37° C.; Kinetic, 31 cycles of 1 reading per minute. Make cold G-PEM buffer (990 μL General Tubulin Buffer+10 μL GTP Stock) and keep it on ice. […] Immediately place the plate into the spectrophotometer and start recording using the kinetic setup described above. […] Nocodazole, the tubulin polymerization inhibitor, was set as a negative control. The metabolite Cys-3AA-MDC was prepared by reaction of 3AA-MDC with cysteine under the base DIEA in CH2Cl2. LC-MS (M+H^+) calc.: 964.5. found: 964.2. Rt: 12.97 min. The metabolite Lys-MCC-MDC was prepared by reaction of SMCC-MDC with lysine under the base DIEA in DMF. LC-MS (M+H^+) calc.: 1103.7. found: 1103.2. Rt: 13.00 and 13.18 min.

[3] = tested on: multiple cancer cell lines; settings: cited from earlier work

Row | SMILES | inhibition of tubulin polymerization (tubulin) | other results
1 | COc1cc2cc(c1Cl)N(C)C(=O)C[C@H](OC(=O)[C@H](C)N(C)C(C)=O)[C@]1(C)O[C@H]1[C@H](C)[C@@H]1C[C@@](O)(NC(=O)O1)[C@H](OC)/C=C/C=C(\C)C2 [Maytansine] | – | inhibitory activity against tumors [1]: significant inhibitory activity; inhibitory concentration, as low as [2]: ≥ 10^−7 μg/mL
2 | COc1cc2cc(c1Cl)N(C)C(=O)C[C@H](OC(=O)[C@H](C)N(C)C(=O)CCCCCN1C(=O)C=CC1=O)[C@]1(C)OC1[C@H](C)[C@@H]1C[C@@](O)(NC(=O)O1)[C@H](OC)/C=C/C=C(\C)C2 (stereo partly drawn) [3AA-MDC, N2′-deacetyl-N2′-(6-maleimido-1-oxo-hexyl)maytansine] | more significantly inhibited the tubulin polymerization | –
3 | CN[C@@H](C)C(=O)OC1CC(=O)N(C)c2cc(cc(OC)c2Cl)C/C(C)=C/C=C/C(OC)C2(O)CC(OC(=O)N2)C(C)C2OC12C (stereo partly drawn) [Cys-3AA-MDC] | more significantly inhibited the tubulin polymerization | –
4 | COc1cc2cc(c1Cl)N(C)C(=O)C[C@H](OC(=O)[C@H](C)N(C)C(=O)CCSC1CC(=O)N(CC3CCC(C(=O)NCCCC[C@H](N)C(=O)O)CC3)C1=O)[C@]1(C)O[C@H]1[C@H](C)[C@@H]1C[C@@](O)(NC(=O)O1)[C@H](OC)/C=C/C=C(\C)C2 (stereo partly drawn) [Lys-mcc-MDC] | more significantly inhibited the tubulin polymerization | –
5 | COc1cc2cc(c1Cl)N(C)C(=O)C[C@H](OC(=O)C(C)C)[C@]1(C)O[C@@H]1[C@H](C)[C@@H]1C[C@@](O)(NC(=O)O1)[C@H](OC)/C=C/C=C(\C)C2 [Ansamitocin P3] | – | efficacy against cancer cell lines [3]: effective against multiple cancer cell lines

— patent US9345786B2, “Maytansinoid derivatives” (priority 2013, dated 2016)
